Among the data in ChEMBL document CHEMBL1141753, “Cytotoxic diterpenoids from the soft coral Sinularia microclavata” (J Nat Prod, 2005) are IC50 values, retold here.

What all share (type): functional, cell-based
The test system of one experiment is A549. Put plainly: Cytotoxicity against human A549 cells by MTT assay. For orientation: Tetrazolium dyes change colour on reduction, which living cells bring about.
A further experiment relates to KB. Nature of the experiment: Cytotoxicity against human KB cells by MTT assay.
A further experiment relates to MCF7. Nature of the experiment: Cytotoxicity against human MCF7 cells by MTT assay.

Values after ≈ are worked out from the molar mass of the structure shown.

What is called IC50 is the concentration that gives 50% inhibition. A high value points to weaker potency. As to `C=C1C(=O)O[C@]2(C)CC[C@@H]1C[C@@H](O)[C@@](C)(O)CC/C=C(\C)CC[C@@H]2O` [CAPILLOLIDE], in the experiment on A549, the IC50 was 0.5 µg/mL (≈ 1.42 µM).

For the molecule `C/C1=C\[C@@H]2[C@H](CC[C@H](C)CC(=O)[C@@H]3O[C@]3(C)/C=C/C1=O)C2(C)C` [MICROCLAVATIN], the 50% inhibitory concentration (IC50) with KB came out at 5 µg/mL (≈ 15.8 µM); with MCF7, 20 µg/mL (≈ 63.2 µM).
